Test results as given in US20230293644A1, “ANTI-INFLAMMATORY PEPTIDES AND COMPOSITION COMPRISING THE SAME” (Gemvax & KAEL Co., Ltd., priority 2012, published 2023).

Columns and labels:
Assay type in all cases: cell-based, human
[1] = test system: TNF-α; assay: Screening of TNF-α level in PMA-differentiated THP-1 cell line after LPS; details: 1 µM peptide, one hour; LPS 10 ng/ml
Experimental: Experiment was carried out using THP-1 cell line (American Type Culture Collection (ATCC), Manassas, VA, USA) which is human acute monocytic leukemia.
THP-1 cells were incubated to reach the number of 1 × 10^5 cells per well in a 96-well plate with RPMI 1640 medium for 24 hrs, followed by addition of 100 uM of PMA (phorbol 12-myristate 13-acetate) for the differentiation into macrophage. After differentiation of THP-1 into macrophage by PMA for a day, LPS was treated for 2 hrs and washed off. Starvation for an hour and PEP1 treatment followed.
THP-1 cell differentiated by PMA was treated with LPS (lipopolysaccharide; 10 ng/ml, Sigma) for 2 hours, followed by 2 times washes with PBS. To the cells, OPTI-MEM culture medium was added to induce cell starvation for an hour, and 1 µM of 179 peptides was taken out and incubated for an hour. After incubation, TNF-α level was measured by using the ELISA kit and the peptides which reduce the TNF-α level were screened (FIG. 24 to FIG. 46).

[2] = test system: TNF-α; assay: Screening of TNF-α inhibitory effect, LPS-stimulated PBMC-derived monocytes (Example 2); details: 4 uM peptide, 2 hrs, LPS 10 ng/ml; for TNF-α inhibiting effect compared to the group treated with LPS and estrogen: estrogen 20 nM
Experimental: PBMC (peripheral blood mononuclear cells) layer was separated from blood samples (50 ml) collected in healthy subjects using Biocoll Separating Solution (Biochrom AG, Berlin, Germany). The collected PBMC were enriched in RPMI 1640 medium containing 20% human serum for 30 mins, and then transferred to 100-mm polystyeren cell culture plate coated with human serum for incubation for 2 hrs at 37° C., 5% CO^2 incubator. Monocytes were detached from the bottom of the plate using cold PBS, and incubated to reach the number of 1 × 10^5 cell/well in 96-well plate with RPMI 1640 medium (supplemented with penicillinstreptomycin; […], human serum; 20%) over night.
ELISA was performed to find out how the peptides of the PEP RIA series influence TNF-α level. PBMC-derived monocytes were incubated to reach the number of 1 × 10^5 cells per well in a 96-well plate and then treated with LPS (lipopolysaccharide; 10 ng/ml, Sigma) for 2 hours. To the monocytes that were washed three times with PBS, OPTI-MEM culture medium was added to induce cell starvation for an hour, 4 µM of the peptide was taken out and incubated for 2 hours. There were three negative control groups. The first group was not treated with anything. The second group that was treated with estrogen (in this experiment, estradiol was used as a kind of estrogen). The third group was treated with LPS (10 ng/ml) or with LPS (10 ng/ml) as well as estrogen (20 nM). PEP1 that was confirmed to have TNF-α inhibiting activity was used as a positive control to measure TNF-α inhibiting activity. After incubation, TNF-α was measured by following the ELISA kit manual (R&D, Minneapolis, MN, USA). The details of quantification method can be found in Experiment 2.2 of Example 1.
Using the method stated above, Peptides with TNF-α inhibiting effect were screened. PBMC-derived monocytes were stimulated with LPS (10 ng/ml), which is endotoxin, for 2 hours and were induced to starve by adding OPTI-MEM for 1 hour. After that, 4 uM of 179 peptides were treated and incubated for 2 hrs. The amount of TNF-α in the cell culture medium was measured using ELISA, and the peptides with TNF-α inhibiting effect were screened by comparing to the negative and positive controls (FIG. 3 to FIG. 23).

[3] = test system: TNF-α; assay: TNF-α ELISA, LPS-stimulated PBMC-derived monocytes (Example 1); details: LPS 10 ng/ml 2 hrs, starved 1 hr, 4 uM for 2 hrs; cell culture medium
Experimental: PBMC (peripheral blood mononuclear cell) was separated from the blood samples (50ml) collected from healthy subjects using Ficoll-PaqueTM PLUS (GE Healthcare Life Sciences, Piscataway, NJ, USA). PBMCs were then enriched in complete RPMI 1640 medium containing 20% of human serum, followed by transferring to 100 mm polystyrene cell culture plate coated with human serum for 30 mins. […]
To see the effect of PEP-1 on TNF-α level in terms of protein expression level, ELISA (enzyme linked immunosorbent assay) was performed. […] After culturing, cell soup was collected, and the amount of TNF-α was measured using ELISA kit (R&D, Minneapolis, MN, USA) as follows:
TNF measurement uses sandwich ELISA method. […] Again, plate was washed, and avidin/biotin was added for measuring the absorbance. TNF-α level of each sample was quantified using the standard graph calculated from the absorbance of standard solution.
PBMC-derived monocytes were stimulated with endotoxin LPS (10 ng/ml) for 2 hrs, starved for 1 hr using OPTI-MEM, and then 4 uM of FITC, FITC-TAT, PEP 1-FITC and FITC-PEP 1 were treated for 2 hrs. After incubation, TNF-α level was measured with cell culture medium using ELISA.

| Substance | TNF-α level compared to control group treated only with LPS [1] | TNF-α inhibiting effect compared to the control group treated with only LPS [2] | further results |
| --- | --- | --- | --- |
| ALLTSRLR (listed as Homo sapiens) [SEQ ID NO: 107] | reduce the TNF- α level |  |  |
| ARPALLTSRL (listed as Homo sapiens) [SEQ ID NO: 113] |  | showed TNF-α inhibiting effect | expression level of TNF-α compared to group treated with LPS and estrogen [1]: reduce the expression level of TNF-α |
| ARPALLTSRLR (listed as Homo sapiens) [SEQ ID NO: 112] |  | showed TNF-α inhibiting effect | expression level of TNF-α compared to group treated with LPS and estrogen [1]: reduce the expression level of TNF-α |
| EARPALLTSRLRFIP (listed as Homo sapiens) [SEQ ID NO: 78] | reduce the TNF- α level |  |  |
| EARPALLTSRLRFIPKPDGLRPIVNM (listed as Homo sapiens) [SEQ ID NO: 73] | reduce the TNF- α level | showed TNF-α inhibiting effect | TNF-α inhibiting effect compared to the group treated with LPS and estrogen [2]: showed TNF-α inhibiting effect |
| EARPALLTSRLRFIPKPDGLRPIVNMDY (listed as Homo sapiens) [SEQ ID NO: 75] | reduce the TNF- α level |  |  |
| EVRQHREARPALLTSRLRFIPK (listed as Homo sapiens) [SEQ ID NO: 7] | reduce the TNF- α level |  |  |
| EVRQHREARPALLTSRLRFIPKP (listed as Homo sapiens) [SEQ ID NO: 41] |  |  | expression level of TNF-α compared to group treated with LPS and estrogen [1]: reduce the expression level of TNF-α |
| FIP [SEQ ID NO: 179] | reduce the TNF- α level |  |  |
| Fluorescein Isothiocyanate [FITC] |  |  | TNF-α level [3]: 6.2 ng/mL |
| HREARPALLTSRLRFIPK (listed as Homo sapiens) [SEQ ID NO: 3] |  |  | expression level of TNF-α compared to group treated with LPS and estrogen [1]: reduce the expression level of TNF-α |
| HREARPALLTSRLRFIPKPDGL (listed as Homo sapiens) [SEQ ID NO: 30] |  |  | expression level of TNF-α compared to group treated with LPS and estrogen [1]: reduce the expression level of TNF-α |
| LTSR (listed as Homo sapiens) [SEQ ID NO: 109] | reduce the TNF- α level | showed TNF-α inhibiting effect | TNF-α inhibiting effect compared to the group treated with LPS and estrogen [2]: showed TNF-α inhibiting effect |
| QHREARPALLTSRLRFIPKPDGLR (listed as Homo sapiens) [SEQ ID NO: 38] | reduce the TNF- α level | showed TNF-α inhibiting effect |  |
| REARPALLTSRLRFIPK (listed as Homo sapiens) [SEQ ID NO: 2] |  |  | expression level of TNF-α compared to group treated with LPS and estrogen [1]: reduce the expression level of TNF-α |
| RQHREARPALLTSRLRFIPK (listed as Homo sapiens) [SEQ ID NO: 5] | reduce the TNF- α level |  |  |
| TSRLRFIP (listed as Homo sapiens) [SEQ ID NO: 159] |  | showed TNF-α inhibiting effect |  |
| TSRLRFIPK (listed as Homo sapiens) [SEQ ID NO: 97] |  | showed TNF-α inhibiting effect | TNF-α inhibiting effect compared to the group treated with LPS and estrogen [2]: showed TNF-α inhibiting effect |
| VRQHREARPALLTSRLRFIPKPD (listed as Homo sapiens) [SEQ ID NO: 33] |  | showed TNF-α inhibiting effect | TNF-α inhibiting effect compared to the group treated with LPS and estrogen [2]: showed TNF-α inhibiting effect |
| VRQHREARPALLTSRLRFIPKPDG (listed as Homo sapiens) [SEQ ID NO: 34] |  | showed TNF-α inhibiting effect | TNF-α inhibiting effect compared to the group treated with LPS and estrogen [2]: showed TNF-α inhibiting effect |
| VRQHREARPALLTSRLRFIPKPDGL (listed as Homo sapiens) [SEQ ID NO: 35] |  | showed TNF-α inhibiting effect |  |
| VRQHREARPALLTSRLRFIPKPDGLR (listed as Homo sapiens) [SEQ ID NO: 36] | reduce the TNF- α level | showed TNF-α inhibiting effect |  |
